Reference: ChEMBL document CHEMBL4613297, “Peptides Mimicking the β7/β8 Loop of HIV-1 Reverse Transcriptase p51 as "Hotspot-Targeted" Dimerization Inhibitors” (ACS Med Chem Lett, 2020)
Active and inactive are the calls of the source. No cut-off for these calls is given here. Where a SMILES comes first, the peptide text is derived from it. Bridges are numbered along the chain shown (N, C = ends).

How the values were obtained:
[1] = molecular target: Human immunodeficiency virus type 1 reverse transcriptase (Human immunodeficiency virus 1) (UniProt Q72547); experiment: Inhibition of recombinant HIV-1 group M subtype B reverse transcriptase p51/p66 expressed in Escherichia coli M15 assessed as change in melting temperature at 100 uM incubated for 1 hr by sypro orange dye based differential scanning fluorimetric analysis; details: HIV-1 M:B
[2] = molecular target: T1, Human immunodeficiency virus type 1 reverse transcriptase (Human immunodeficiency virus 1, UniProt Q72547); experiment: Inhibition of HIV-1 reverse transcriptase His-tagged p51 heterodimerization with HIV-1 reverse transcriptase p66 incubated for 16 hrs by ELISA
[3] = molecular target: T1, Human immunodeficiency virus type 1 reverse transcriptase; experiment: Inhibition of recombinant HIV-1 BH10 reverse transcriptase p51/p66 expressed in Escherichia coli preincubated for 10 mins followed by D38/25PGA template-primer addition and measured after 10 to 30 secs by denaturing PAGE based single nucleotide incorporation assay; design: species or system Human immunodeficiency virus type 1 BH10
[4] = molecular target: Human immunodeficiency virus type 1 reverse transcriptase (Human immunodeficiency virus 1) (UniProt Q72547); experiment: Inhibition of RNase H activity of recombinant HIV-1 BH10 reverse transcriptase p51/p66 expressed in Escherichia coli at 100 uM; details: Human immunodeficiency virus type 1 BH10
[5] = molecular target: T1, Human immunodeficiency virus type 1 reverse transcriptase; experiment: (§1) Inhibition of recombinant HIV-1 BH10 reverse transcriptase p51/p66 expressed in Escherichia coli assessed as reduction in recovery of DNA polymerase activity preincubated with 15% acetonitrile for 15 hrs followed by compound addition and acetonitrile reduced to <1% using poly(rA)/oligo(dT)16 as template/primer in presence of [3H]dTTP; design: species or system Human immunodeficiency virus type 1 BH10
[6] = molecular target: Human immunodeficiency virus type 1 reverse transcriptase (Human immunodeficiency virus 1) (UniProt Q72547); experiment: as §1, with “activity at 200 uM” for “activity”, “[3H]dTTP relative to control” for “[3H]dTTP”; details: Human immunodeficiency virus type 1 BH10

Compound | ΔTm [1] [°C] | IC50 [2] [µM] | IC50 [3] [µM] | inhibition [4] | IC50 [5] [µM] | inhibition [6] [%]
H-IPSINNETPGI-OH | -13.6 | > 150 | > 145 | inactive | – | –
CC[C@H](C)[C@@H]1NC(=O)[C@H](CO)NC(=O)[C@H](N)CSSC[C@@H](C(=O)O)NC(=O)[C@@H]2CCCN2C(=O)[C@H]([C@@H](C)O)NC(=O)[C@H](CCC(=O)O)NC(=O)[C@H](CC(N)=O)NC(=O)[C@H](CC(N)=O)NC1=O | -15.8 | 61 | > 145 | inactive | > 250 | 43
Cc1cn([C@@H]2O[C@H](CO[Si](C)(C)C(C)(C)C)[C@]3(C=CS(=O)(=O)O3)[C@H]2O[Si](C)(C)C(C)(C)C)c(=O)[nH]c1=O | -1.4 | – | – | – | – | –
CC[C@H](C)[C@@H]1NC(=O)[C@H](CCCNC(=N)N)NC(=O)[C@H](Cc2ccc(O)cc2)NC(=O)[C@H]2CCCN2C(=O)[C@@H]2CCCN2C(=O)[C@H](Cc2ccccc2)NC(=O)[C@H]([C@H](C)O)NC(=O)[C@H]([C@@H](C)CC)NC(=O)[C@@H]2CCCN2C(=O)[C@H](CC(N)=O)NC(=O)[C@H]([C@@H](C)CC)NC(=O)[C@@H](CO)NC(=O)[C@H](CC(N)=O)NC(=O)[C@@H](CCC(=O)O)NC(=O)[C@H]([C@H](C)O)NC(=O)[C@@H]2CCCN2C(=O)CNC1=O | -15 | – | > 145 | inactive | – | –
CC[C@H](C)[C@@H]1NC(=O)[C@@H](N)CSSC[C@@H](C(=O)O)NC(=O)[C@H](CCC(=O)O)NC(=O)[C@H](CC(N)=O)NC(=O)[C@H](CC(N)=O)NC1=O (H-CINNEC-OH; disulfide 1-6) | -15.8 | 37 | 109 | inactive | 203 | –
CC[C@H](C)[C@@H]1NC(=O)CNC(=O)[C@@H]2CCCN2C(=O)[C@H]([C@@H](C)O)NC(=O)C(CCC(=O)O)NC(=O)[C@H](CC(N)=O)NC(=O)C(CC(N)=O)NC(=O)[C@@H]([C@@H](C)CC)NC(=O)[C@H](CO)NC(=O)[C@@H]2CCCN2C(=O)[C@H]([C@@H](C)CC)NC(=O)[C@@H](N)CSSC[C@@H](C(=O)O)NC1=O (stereo partly drawn) | -14.5 | 137 | > 145 | inactive | > 250 | < 5
CC[C@H](C)[C@H](NC(=O)CNC(=O)[C@@H]1CCCN1C(=O)[C@@H](NC(=O)[C@H](CCC(=O)O)NC(=O)[C@H](CC(N)=O)NC(=O)[C@H](CC(N)=O)NC(=O)[C@@H](NC(=O)[C@H](CO)NC(=O)[C@@H]1CCCN1C(=O)[C@@H](NC(=O)[C@@H](NC(=O)[C@@H](N)Cc1ccccc1)[C@@H](C)O)[C@@H](C)CC)[C@@H](C)CC)C(C)O)C(=O)N[C@@H](CCCNC(=N)N)C(=O)N[C@@H](Cc1ccc(O)cc1)C(=O)O (single isomer, unassigned) | -15.6 | – | > 145 | inactive | – | –
